# From patent publication US6630454B2, “Method and pharmaceutical composition for the treatment of cancer” (priority 2001, dated 2003)
# What was measured:
# [1] = highest safe dose used for accepted indications; cited from earlier work
# [2] = test system: C6 and PANC-1 cells; parameters: dose or concentration left out as unconfirmed; settings: […] μM fluoxetine alone, 24 hours
# [3] = test system: PANC-1, C6, MCF-7, U2OS and HT1080 cells
# Experimental: Studies similar in general to those outlined in the previous section, were conducted with five cell lines selected for this task (PANC-1, C6, MCF-7, U2OS and HT1080), increasing the length of the experiment to 48 hours. The studies were done with DOX and with Vinblastine (VIN or VLB).
# [4] = clinical studies, review (DeVita et al., 1993); cited from earlier work
Compound,highest safety limit [1] [µM],effect of fluoxetine alone on cell survival [2],potentiation of the cytotoxic effect of the chemotherapeutic drug [3],side effects / dose-limiting toxicity when used as chemosensitizer [4]
"CNCCC(Oc1ccc(C(F)(F)F)cc1)c1ccccc1 (centres unmarked) [fluoxetine, N-methyl 3-(p-trifluoromethylphenoxy)-3-phenylpropylamine]",15,does not affect cell survival at all,potentiates the cytotoxic effect,–
CC/C(=C(\c1ccccc1)c1ccc(OCCN(C)C)cc1)c1ccccc1 [tamoxifen],–,–,–,attributed to the inherent toxicity of the chemosensitizer
CN1CCN(CCCN2c3ccccc3Sc3ccc(C(F)(F)F)cc32)CC1 [trifluoperazine],–,–,–,attributed to the inherent toxicity of the chemosensitizer
